In ChEMBL document CHEMBL1122707, “Pyrroloisoquinoline antidepressants. Potent, enantioselective inhibition of tetrabenazine-induced ptosis and neuronal uptake of norepinephrine, dopamine, and serotonin” (J Med Chem, 1984):
pKi: −log10 of the molar value.

Legend:
[1] = molecular target: Norepinephrine transporter (Rattus norvegicus, UniProt Q9WTR4); assay: Inhibition of norepinephrine (NE) into rat brain synaptosomes; format: functional, subcellular
[2] = molecular target: Sodium-dependent dopamine transporter (Rattus norvegicus, UniProt P23977); assay: Inhibition of dopamine (DA) uptake into rat brain synaptosomes; format: functional, subcellular
Chain of Sodium-dependent dopamine transporter (P23977 whole entry): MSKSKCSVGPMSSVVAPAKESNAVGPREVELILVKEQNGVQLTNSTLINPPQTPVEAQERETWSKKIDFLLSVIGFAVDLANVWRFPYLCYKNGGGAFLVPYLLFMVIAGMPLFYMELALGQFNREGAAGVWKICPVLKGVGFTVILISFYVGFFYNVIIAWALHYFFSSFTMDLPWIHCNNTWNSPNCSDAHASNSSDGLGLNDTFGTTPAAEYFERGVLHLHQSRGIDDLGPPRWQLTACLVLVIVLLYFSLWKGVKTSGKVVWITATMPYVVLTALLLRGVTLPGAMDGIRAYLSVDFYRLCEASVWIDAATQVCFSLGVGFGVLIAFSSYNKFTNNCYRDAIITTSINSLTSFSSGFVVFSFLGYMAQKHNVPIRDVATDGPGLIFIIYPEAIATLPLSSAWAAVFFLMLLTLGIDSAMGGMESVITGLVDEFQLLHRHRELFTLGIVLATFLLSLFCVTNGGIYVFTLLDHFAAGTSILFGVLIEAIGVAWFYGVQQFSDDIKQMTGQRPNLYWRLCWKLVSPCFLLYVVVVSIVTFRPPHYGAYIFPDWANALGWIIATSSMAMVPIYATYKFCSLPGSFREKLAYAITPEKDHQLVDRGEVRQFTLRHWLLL

Mus musculus [3] = assay: Inhibition of tetrabenazine (TBZ)-induced ptosis in mice (administered ip); format: functional
[4] = molecular target: Sodium-dependent serotonin transporter (Rattus norvegicus, UniProt P31652); assay: Inhibition of serotonin (5-HT) uptake into rat brain synaptosomes; format: subcellular
Chain of Sodium-dependent serotonin transporter (P31652 whole entry): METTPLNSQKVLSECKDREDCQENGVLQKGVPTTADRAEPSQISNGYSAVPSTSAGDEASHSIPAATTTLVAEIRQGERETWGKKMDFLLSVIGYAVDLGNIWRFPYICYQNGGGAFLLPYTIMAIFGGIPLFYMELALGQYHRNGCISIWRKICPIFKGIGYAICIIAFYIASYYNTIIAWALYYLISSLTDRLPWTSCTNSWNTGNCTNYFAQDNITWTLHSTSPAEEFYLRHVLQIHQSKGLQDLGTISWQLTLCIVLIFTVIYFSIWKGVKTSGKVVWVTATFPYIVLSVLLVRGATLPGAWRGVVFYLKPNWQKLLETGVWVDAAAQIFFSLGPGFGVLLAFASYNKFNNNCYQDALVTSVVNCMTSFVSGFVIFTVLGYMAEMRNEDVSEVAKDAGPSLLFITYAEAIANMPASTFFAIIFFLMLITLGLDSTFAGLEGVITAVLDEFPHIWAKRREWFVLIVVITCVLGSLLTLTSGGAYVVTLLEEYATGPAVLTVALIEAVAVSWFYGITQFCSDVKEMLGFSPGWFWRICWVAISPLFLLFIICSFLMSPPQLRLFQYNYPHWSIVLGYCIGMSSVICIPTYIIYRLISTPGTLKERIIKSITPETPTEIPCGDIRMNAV

Mus musculus [5] = assay: Inhibition of tetrabenazine (TBZ)-induced depression of motor activity (MA) in mice (administered ip); format: functional
Mus musculus [6] = assay: Compound was evaluated for the inhibition of tetrabenazine (TBZ)-induced depression of motor activity (MA) in mice (administered sc); format: functional
Mus musculus [7] = assay: Compound was evaluated for the inhibition of tetrabenazine (TBZ)-induced ptosis in mice (administered sc); format: functional
[8] = Mus musculus, ip, read-out: ED50

Chain of Norepinephrine transporter (Q9WTR4 whole entry): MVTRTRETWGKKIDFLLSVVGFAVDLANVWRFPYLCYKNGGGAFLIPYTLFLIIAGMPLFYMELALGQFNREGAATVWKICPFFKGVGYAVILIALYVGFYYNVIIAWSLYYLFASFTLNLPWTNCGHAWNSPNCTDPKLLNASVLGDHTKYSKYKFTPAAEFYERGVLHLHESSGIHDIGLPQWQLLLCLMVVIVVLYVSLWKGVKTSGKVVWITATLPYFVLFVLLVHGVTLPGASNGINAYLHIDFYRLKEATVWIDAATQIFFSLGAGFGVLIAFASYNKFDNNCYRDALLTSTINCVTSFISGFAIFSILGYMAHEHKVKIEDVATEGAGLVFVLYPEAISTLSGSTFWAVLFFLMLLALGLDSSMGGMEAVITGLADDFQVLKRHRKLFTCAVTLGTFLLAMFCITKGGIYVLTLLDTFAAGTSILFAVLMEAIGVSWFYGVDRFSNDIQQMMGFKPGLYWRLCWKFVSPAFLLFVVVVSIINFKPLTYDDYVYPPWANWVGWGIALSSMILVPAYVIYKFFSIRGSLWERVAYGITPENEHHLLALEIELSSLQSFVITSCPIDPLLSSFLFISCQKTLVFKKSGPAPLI

Row | SMILES | pKi [1] | pKi [2] | ED50 (Mus musculus [3]; [8]) | pKi [4] | ED50 (Mus musculus [5]) | ED50 (Mus musculus [3]) | ED50 (Mus musculus [6]) | ED50 (Mus musculus [7])
1 | COc1ccc2c(c1)CN(C)CC2c1ccc(Cl)c(Cl)c1 (stereo not given) [DICLOFENSINE] | 8.36 | 7.84 |  |  |  |  |  | 
2 | Br.c1ccc(C2CN3CCCCCC3c3ccccc32)cc1 (stereo not given) | 7.00 | < 7.00 | > 30 mg/kg | < 5.30 | 30 mg/kg |  |  | 
3 | Clc1ccc(C2CN3CCC[C@H]3c3ccccc32)cc1Cl (stereo not given in full) | 9.17 | 9.00 | 0.14 mg/kg |  | 0.39 mg/kg |  |  | 
4 | Cl.c1ccc(C2CN3CCC[C@H]3c3ccccc32)cc1 (single isomer, unassigned; (+)) |  | 8.36 | 0.05 mg/kg |  | 0.59 mg/kg |  |  | 
5 | Cl.FC(F)(F)c1cccc([C@@H]2CN3CCC[C@H]3c3ccccc32)c1 | < 7.00 | < 6.00 | > 60 mg/kg |  | > 60 mg/kg |  |  | 
6 | CN1CCN2c3ccccc3Cc3ccccc3C2C1 (stereo not given) [MIANSERIN] | 7.59 | < 5.00 | 9.7 mg/kg |  | > 30 mg/kg |  |  | 
7 | Br.Clc1ccc(C2CN3CCC[C@H]3c3ccccc32)cc1 (stereo not given in full) |  |  | 0.34 mg/kg |  | 0.55 mg/kg |  |  | 
8 | Br.Nc1ccc([C@@H]2CN3CCC[C@H]3c3ccccc32)cc1 | 8.00 | 7.52 | 0.4 mg/kg |  | 1.4 mg/kg |  |  | 
9 | Cl.c1ccc([C@H]2CN3CCC[C@H]3c3ccccc32)cc1 (stereo in doubt; (-)-5b) |  | 5.87 |  |  | > 30 mg/kg | 8.3 mg/kg |  | 
10 | Br.Oc1ccc(C2CN3CCC[C@H]3c3ccccc32)cc1O (stereo not given in full) | 9.09 | 8.00 | 0.11 mg/kg |  | 0.19 mg/kg |  |  | 
11 | Cl.FC(F)(F)c1cccc([C@H]2CN3CCC[C@H]3c3ccccc32)c1 | 9.02 | 7.27 | 0.43 mg/kg |  | 1.2 mg/kg |  |  | 
12 | Br.COc1ccc(C2CN3CCC[C@H]3c3ccccc32)cc1 (stereo not given in full) | 9.10 | 8.28 | 0.03 mg/kg |  | 0.27 mg/kg |  |  | 
13 | CSc1ccc([C@@H]2CN3CCC[C@H]3c3ccccc32)cc1 |  | 7.43 | 0.4 mg/kg |  | > 30 mg/kg |  |  | 
14 | Cl.c1ccc([C@H]2CN3CCC[C@H]3c3ccccc32)cc1 (stereo in doubt; 5a) |  | 6.80 |  |  |  | >30 mg/kg |  | 
15 | c1ccc(C2CN3CCCCC3c3ccccc32)cc1 (stereo not given) | 7.70 | < 6.30 | > 30 mg/kg |  | > 30 mg/kg |  |  | 
16 | CNCCCN1c2ccccc2CCc2ccccc21.Cl [DESIPRAMINE HYDROCHLORIDE] |  |  |  |  |  |  | 0.07 mg/kg | 0.05 mg/kg
17 | Br.Oc1ccc(C2CN3CCC[C@H]3c3ccccc32)cc1 (stereo not given in full) | 9.13 | 8.29 | 0.09 mg/kg |  | 0.4 mg/kg |  |  | 
18 | Br.Nc1ccc([C@H]2CN3CCC[C@H]3c3ccccc32)cc1 | 9.70 | 9.07 | 0.02 mg/kg |  | > 1 mg/kg |  |  | 
19 | Br.O=[N+]([O-])c1ccc(C2CN3CCC[C@H]3c3ccccc32)cc1 (stereo not given in full) | 8.47 | 7.03 | 0.14 mg/kg |  | 0.34 mg/kg |  |  | 
20 | c1ccc([C@H]2CN3CCC[C@H]3c3ccccc32)cc1 |  |  | 0.07 mg/kg |  | 0.34 mg/kg |  |  | 
21 | Br.COc1ccc(C2CN3CCC[C@H]3c3ccccc32)cc1OC (stereo not given in full) | 8.47 | 7.14 | 0.11 mg/kg |  | 0.45 mg/kg |  |  | 
22 | CN1Cc2c(N)cccc2C(c2ccccc2)C1 (stereo not given) [NOMIFENSINE] | 8.42 |  |  |  |  |  |  | 
23 | CN(C)CCCN1c2ccccc2CCc2ccccc21.Cl [IMIPRAMINE HYDROCHLORIDE] |  |  | 0.98 mg/kg |  | 0.58 mg/kg |  |  | 
